Data from patent publication US7662851B2, “Use of specific cyklolignans” (Axelar AB, priority 2001, dated 2010).
Converted amounts (≈) assume the structure as drawn.

Key:
[1] = test system: K562/Vcr30 chronic myeloid leukemia cells; assay: Leukemia cell viability, K562/Vcr30; type: cell-based, human; settings: Homo sapiens; K562/Vcr30, 72 h; read-out: IC50 for cell viability
Description: (§1) The human chronic myeloid leukemia K562/S and K562/Vcr30 lines and the acute myeloid leukemia cell lines HL60/0 and HL60/Nov were obtained from ATCC. The K562/S and […] are wild type (non-resistant) cells, whereas K562/Vcr30 and HL60/Nov are cytostatic-resistant sublines. All leukemia cell lines were cultured in RPMI 1640 medium supplemented with 10% fetal bovine serum and with 2 mM L-glutamine, benzylpenicillin (100 U/ml) and streptomycin (100 μg/ml). The cells were grown in tissue culture flasks maintained at 95% air/5% CO2 atmosphere at 37° C. in a humidified incubator. For the experiments cells were cultured in 60-mm plastic dishes or 96-well plastic plates.
(§2) Cell proliferation kit II (Roche Inc.) is based on colorimetric change of the yellow tetrazolium salt XTT in orange formazan dye by the respiratory chain of viable cells (Roehm, N W, et al., J Immunol Methods 142:257-265, 1991). Cells seeded at a concentration of 5000/well in 100 μl medium in a 96-well plate were treated with different drugs in the given concentration. After 24 or 48 h the cells were incubated, according to the manufacturer's protocol, with XTT labelling mixture. After 4 h the formazan dye is quantified using a scanning multiwell spectrophotometer with a 495-nm filter. The absorbance is directly correlated with the number of viable cells. The standard absorbance curve was drawn by means of untreated cells seeded at a concentration of from 1000 to 10 000 cells/well with an increasing rate of 1000 cells/well. All standards and experiments were performed in triplicates.
(§3) Cells of said cell lines were seeded in 96-well plates (25 000 cells/well, medium volume per well was 100 μl), in […] medium supplemented with fetal calf serum. After 24 h picropodophyllin and the derivatives alpha-apopicropodophyllin and beta-apopicropodo-phyllin were added at different concentrations and the cells were incubated for 72 h. Cell viability was then assayed (see above). […] The results are based on 3 different experiments.
(§4) The leukemia cell lines K562/S, […], HL60/0 and HL60/Nov were cultured in 96-well plates as described in Experiment 7. After 24 h, the cells were treated for 72 h with different concentrations of the anti-cancer agent vincristine, with and without co-incubation with 0.05 μM picropodophyllin. […] Cell viability was then assayed. IC50 values for each inhibitor and cell line are shown below (Table 8). The results are based on 3 different experiments.

non-IGF-1R kinases = assay: In vitro tyrosine kinase assay: non-IGF-1R kinases (IGF-1R-immunodepleted supernatant); type: biochemical; settings: cell-free, FIG. 3
Description: (§5) IGF-1R-catalyzed substrate phosphorylation of polyTyrGlu (pTG) was performed essentially as previously described [Parrizas M., et al., ibid., and Blum G., et al., ibid.]. Immunoprecipitated IR from HepG2, IGF-1R from P6 cell extract and immunodepleted supernatant to assay non-IGF-1R tyrosine kinases. The phosphorylated polymer substrate was probed with a purified phosphotyrosine specific monoclonal antibody conjugated to horseradish peroxidase (HARP). Color was developed with HRP chromogenic substrate o-phenylene-diamine dihydrochloride (OPD). The color was quantitated by spectrophotometry (ELISA reader) and reflects the relative amount of tyrosine kinase. The precipitate was immunoblotted with anti-bodies to IGF-1R and IR to verify the presence of the receptor. Serial dilutions were used to assay the optimal conditions with respect to the amount of IGF-1R and IR. The signal was linear for 30 minutes and was a function of IGF-1R concentration up to 75 ng/well. […] After spectrophotometry the IC50 values of inhibitors were determined using the Regression function of Statistica program.
(§6) Therefore we isolated the receptor and determined the effects of picropodophyllin on IGF-1R catalyzed substrate tyrosine phosphorylation and IGF-1R autophosphorylation in-vitro.

[2] = test system: HL60/0 acute myeloid leukemia cells; assay: Leukemia cell viability, HL60/0; type: cell-based, human; settings: Homo sapiens, HL-60; HL60, 72 h; read-out: IC50 for cell viability
Description: as §1, §2, §3, §4

IGF-1R = IGF-1R (Homo sapiens, UniProt P08069); assay: In vitro tyrosine kinase assay: IGF-1R-catalyzed substrate phosphorylation of polyTyrGlu (pTG), cell-free; type: biochemical; set-up: expressed in transfected cells; host or cells: P6 cell line (murine fibroblasts overexpressing human IGF-1R); receptor captured on plates with an antibody to the beta subunit; settings: FIG. 3
IGF-1R, sequence (P08069 31-1367): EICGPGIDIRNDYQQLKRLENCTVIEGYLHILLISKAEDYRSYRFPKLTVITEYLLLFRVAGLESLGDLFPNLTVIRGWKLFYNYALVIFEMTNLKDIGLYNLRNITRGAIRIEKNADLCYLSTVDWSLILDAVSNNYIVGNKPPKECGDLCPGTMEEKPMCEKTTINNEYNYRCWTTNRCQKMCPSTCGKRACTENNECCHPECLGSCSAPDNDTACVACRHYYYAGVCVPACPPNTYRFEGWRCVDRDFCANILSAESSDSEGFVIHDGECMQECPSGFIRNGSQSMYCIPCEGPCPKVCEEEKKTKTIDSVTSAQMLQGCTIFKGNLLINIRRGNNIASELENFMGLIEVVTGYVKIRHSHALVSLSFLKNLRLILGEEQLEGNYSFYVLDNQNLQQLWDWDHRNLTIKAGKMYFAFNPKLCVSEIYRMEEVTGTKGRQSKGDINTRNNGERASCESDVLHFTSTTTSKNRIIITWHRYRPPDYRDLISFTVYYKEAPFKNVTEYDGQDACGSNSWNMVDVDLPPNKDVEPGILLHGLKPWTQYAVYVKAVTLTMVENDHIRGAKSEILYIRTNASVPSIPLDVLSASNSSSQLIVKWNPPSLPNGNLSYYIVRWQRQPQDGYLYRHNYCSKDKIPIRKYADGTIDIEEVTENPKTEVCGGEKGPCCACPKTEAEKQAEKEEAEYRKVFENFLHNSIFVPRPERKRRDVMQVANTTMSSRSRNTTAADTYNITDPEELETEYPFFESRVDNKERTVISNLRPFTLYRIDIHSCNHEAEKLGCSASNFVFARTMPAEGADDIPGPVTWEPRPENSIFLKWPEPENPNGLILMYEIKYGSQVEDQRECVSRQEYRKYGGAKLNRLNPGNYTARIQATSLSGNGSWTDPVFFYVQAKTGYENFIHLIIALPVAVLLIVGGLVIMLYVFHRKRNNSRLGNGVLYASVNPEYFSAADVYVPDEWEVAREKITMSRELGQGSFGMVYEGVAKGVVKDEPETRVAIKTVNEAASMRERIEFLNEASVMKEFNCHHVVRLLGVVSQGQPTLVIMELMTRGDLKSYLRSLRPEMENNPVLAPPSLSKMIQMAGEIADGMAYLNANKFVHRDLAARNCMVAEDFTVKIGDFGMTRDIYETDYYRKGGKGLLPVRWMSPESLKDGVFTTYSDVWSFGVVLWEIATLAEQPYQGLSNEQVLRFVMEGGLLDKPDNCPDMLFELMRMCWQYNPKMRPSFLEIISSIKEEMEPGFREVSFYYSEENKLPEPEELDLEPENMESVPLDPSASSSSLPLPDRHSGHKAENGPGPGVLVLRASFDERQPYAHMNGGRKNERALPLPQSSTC
Description: as §5, §6

IR tyrosine kinase = target: T1, IR tyrosine kinase (Homo sapiens, UniProt P06213); assay: In vitro tyrosine kinase assay: substrate phosphorylation by IR, cell-free; type: biochemical; settings: FIG. 3
T1 construct: Immunoprecipitated IR from HepG2; endogenous in cells; host or cells: HepG2 hepatoma cells (immunoprecipitate)
T1 sequence (P06213 28-1382): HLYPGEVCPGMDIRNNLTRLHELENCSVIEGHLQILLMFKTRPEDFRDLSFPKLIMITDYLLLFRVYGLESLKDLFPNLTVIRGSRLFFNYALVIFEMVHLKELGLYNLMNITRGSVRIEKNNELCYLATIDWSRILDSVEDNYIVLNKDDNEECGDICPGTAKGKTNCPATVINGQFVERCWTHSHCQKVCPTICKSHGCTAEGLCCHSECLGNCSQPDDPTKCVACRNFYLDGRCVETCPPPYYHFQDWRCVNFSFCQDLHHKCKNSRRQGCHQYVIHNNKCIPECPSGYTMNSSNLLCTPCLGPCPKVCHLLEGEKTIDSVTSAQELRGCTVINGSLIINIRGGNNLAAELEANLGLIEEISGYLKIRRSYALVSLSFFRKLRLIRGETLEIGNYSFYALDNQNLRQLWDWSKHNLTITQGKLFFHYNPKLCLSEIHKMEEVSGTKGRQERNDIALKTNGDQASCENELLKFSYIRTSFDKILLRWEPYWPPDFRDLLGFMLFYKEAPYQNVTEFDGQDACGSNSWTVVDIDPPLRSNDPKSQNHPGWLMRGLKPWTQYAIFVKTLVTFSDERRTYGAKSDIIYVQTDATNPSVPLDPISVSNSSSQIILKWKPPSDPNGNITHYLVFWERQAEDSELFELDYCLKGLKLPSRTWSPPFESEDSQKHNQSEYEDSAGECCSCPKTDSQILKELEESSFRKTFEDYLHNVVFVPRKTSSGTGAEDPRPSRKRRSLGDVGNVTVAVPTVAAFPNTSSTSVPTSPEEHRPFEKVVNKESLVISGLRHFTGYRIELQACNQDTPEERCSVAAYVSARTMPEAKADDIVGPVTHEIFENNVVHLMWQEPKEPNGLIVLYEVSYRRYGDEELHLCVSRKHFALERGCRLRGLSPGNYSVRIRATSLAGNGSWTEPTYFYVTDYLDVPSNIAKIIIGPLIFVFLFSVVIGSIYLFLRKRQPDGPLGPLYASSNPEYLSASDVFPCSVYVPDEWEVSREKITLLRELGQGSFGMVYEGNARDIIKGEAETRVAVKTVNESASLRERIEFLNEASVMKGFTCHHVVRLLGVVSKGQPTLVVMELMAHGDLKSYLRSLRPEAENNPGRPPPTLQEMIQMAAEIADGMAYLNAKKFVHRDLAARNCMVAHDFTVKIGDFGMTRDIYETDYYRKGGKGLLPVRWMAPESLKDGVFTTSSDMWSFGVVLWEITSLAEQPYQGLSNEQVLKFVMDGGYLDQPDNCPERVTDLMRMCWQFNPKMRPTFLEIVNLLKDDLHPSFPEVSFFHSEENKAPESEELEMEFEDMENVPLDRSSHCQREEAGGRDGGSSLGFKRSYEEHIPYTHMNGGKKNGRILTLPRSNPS
Description: as §5, §6

[3] = nude, mouse, in vivo, ip, 28 mg/kg
Water solubility = type: physicochemical
[4] = test system: DWB malignant melanoma cell line; assay: Cell viability (XTT), DWB; type: cell-based; settings: 48 h
Description: as §2
(§7) 12 different types of cell lines were seeded in 96-well plates (medium volume in a well was 100 μl), at a concentration of 10,000 cells/cm^2 in Minimal Essential Medium supplemented with fetal calf serum. When the cells had reached a concentration of 65,000 cells/cm^2, they were treated with different doses of podophyllotoxin and picropodophyllin for 48 h. Cell viability was then assayed (see above). […]

[5] = test system: SK-MEL-2 melanoma cell line; assay: Cell viability (XTT, Cell proliferation kit II), SK-MEL-2; type: cell-based; settings: Homo sapiens, SK-MEL-2, 48 h
Description: as §2, §7

| Compound | IC50 [1] [nM] | Interference with substrate phosphorylation of other non-IGF-1R kinases (non-IGF-1R kinases) | IC50 [2] [nM] | IC50 (IGF-1R) [nM] | Interference with substrate phosphorylation of IR tyrosine kinase (IR tyrosine kinase) | Average concentration in the blood plasma [3] | solubility (Water solubility) [µM] | EC50 [4] [nM] | EC50 [5] [nM] |
| --- | --- | --- | --- | --- | --- | --- | --- | --- | --- |
| COc1cc([C@@H]2c3cc4c(cc3[C@H](O)[C@H]3COC(=O)[C@@H]23)OCO4)cc(OC)c1OC [Picropodophyllin, picropodophyllin] | > 500 | failed to interfere | 170 | 6 | failed to interfere | above 0.05 μM | – | – | – |
| COc1cc([C@@H]2c3cc4c(cc3[C@H](O)[C@H]3COC(=O)[C@H]23)OCO4)cc(OC)c1OC [Podophyllotoxin, podophyllotoxin] | – | – | – | – | – | – | 100 to 200 (≈ 41.4 to 82.9 µg/mL) | 40 | 50 |
